Measurements: patent US8470852B2, “Substituted 2-amino-quinoline-3-carboxamides as KCNQ2/3 modulators” (Gruenenthal GmbH, priority 2010, dated 2013)

Legend:
KCNQ2/3 channels = target: T1, KCNQ2/3 channels (Homo sapiens, UniProt O43525+O43526); test: Fluorescence assay using a voltage sensitive dye (fluorimetry); format: cell-based; conditions: CHO-K1 cells expressing KCNQ2/3 channels; for Emax: relative to retigabine = 100%, read-out: Fluorimetry % efficacy (retigabine = 100%)
T1 construct: expressed in transfected cells; host or cells: CHO-K1 cells, kept under selection antibiotics
Procedure: Pharmacological Experiments Method I. Fluorescence Assay Using a Voltage Sensitive Dye (Fluorimetry)
[…] CHO-K1 cells expressing KCNQ2/3 channels are cultivated adherently at 37° C., 5% CO2 and 95% humidity in cell culture bottles (e.g. 80 cm^2 TC flasks, Nunc) with DMEM-high glucose (Sigma Aldrich, D7777) including 10% FCS (PAN Biotech, e.g. 3302-P270521) or alternatively MEM Alpha Medium (1×, liquid, Invitrogen, #22571), 10% fetal calf serum (FCS) (Invitrogen, #10270-106, heat-inactivated) and the necessary selection antibiotics.
Before being sown out for the measurements, the cells are washed with 1×DPBS buffer Ca^2+/Mg^2+-free (e.g. Invitrogen, #14190-094) and detached from the bottom of the culture vessel by using Accutase (PAA Laboratories, #L11-007) (incubation with Accutase for 15 min at 37° C.). The cell number is determined using a CASY™ cell counter (TCC, Schärfe System). Depending on the optimal density for each individual cell line, 20,000-30,000 cells/well/100 μl are seeded onto 96-well Corning™ CellBIND™ assay plates (Flat Clear Bottom Black Polystyrene Microplates, #3340). Freshly seeded cells are then left to settle for one hour at room temperature, followed by incubation for 24 hours at 37° C., 5% CO2 and 95% humidity.
The voltage-sensitive fluorescent dye from the Membrane Potential Assay Kit (Red™ Bulk format part R8123 for FLIPR, MDS Analytical Technologies™) is prepared by dissolving the contents of one vessel Membrane Potential Assay Kit Red Component A in 200 ml of extracellular buffer (ES buffer, 120 mM NaCl, 1 mM KCl, 10 mM HEPES, 2 mM CaCl2, 2 mM MgCl2, 10 mM glucose; pH 7.4). After removal of the nutrient medium, the cells are washed once with 200 μl of ES buffer, then loaded for 45 min at room temperature in 100 μl of dye solution in the dark.
Fluorescence measurements are carried out in a BMG Labtech FLUOstar™, BMG Labtech NOVOstar™ or BMG Labtech POLARstar™ instrument (525 nm excitation, 560 nm emission, Bottom Read mode). After incubation with the dye, 50 μl of the test substances in the desired concentrations, or 50 μl of ES buffer for control purposes, are applied to the wells of the assay plate and incubated for 30 min at room temperature while being shielded from light. The fluorescence intensity of the dye is then measured for 5 min and the fluorescence value F1 of each well is thus determined at a given, constant time. 15 μl of a KCl solution are then added to each well (final concentration of potassium ions 92 mM). The change in fluorescence intensity is subsequently monitored until all the relevant values have been obtained (mainly 5-30 min). At a given time post KCl application, a fluorescence value F2 is determined, in this case at the time of the fluorescence peak.
For calculation, the fluorescence intensity F2 is corrected for the fluorescence intensity F1, and the activity (ΔF/F) of the target compound on the potassium channel is determined as follows:
In order to determine whether a substance has agonistic activity,
[formula] can be related to
[formula] of control wells.
[formula] is determined by adding to the well only the buffer solution instead of the test substance, determining the value F1K of the fluorescence intensity, adding the potassium ions as described above, and measuring a value F2K of the fluorescence intensity. F2K and F1K are then calculated as follows: […]
A substance has an agonistic activity on the potassium channel if
[formula] is greater than
Independently of the comparison of
[formula] it is possible to conclude that a target compound has agonistic activity if
[formula] increases dose dependently.
Calculations of EC50 and IC50 values are carried out with the aid of ‘Prism v4.0’ software (GraphPad Software™).

[1] = system: acute noxious thermal stimulus (tail withdrawal reflex); test: Low-intensity tail flick test (rat); format: in vivo; conditions: dose 21.5 mg/kg
Procedure: Method II. Low-Intensity Tail Flick Test (Rat) In the low-intensity tail flick test, the determination of the antinociceptive effect of the compounds according to the invention towards an acute noxious thermal stimulus is carried out by measuring the withdrawal reflex of the rat tail (tail flick) in response to a radiant heat beam (analgesia meter; model 2011 of the company Rhema Labortechnik, Hofheim, Germany) according to the method described by D'Amour and Smith (J. Pharm. Exp. Ther. 72, 74 79 (1941). To this end, the rats were placed in a plexiglas restrainer, and a low-intensity radiant heat beam (48° C.) was focused onto the dorsal surface of the tail root. […] Before administration of a compound according to the invention, the animals were pre-tested twice in the course of five minutes and the mean of these measurements was calculated as the pre-test mean. The antinociceptive effect was determined at 20, 40 and 60 min after peroral compound administration. The antinociceptive effect was calculated based on the increase in the tail withdrawal latency according to the following formula and is expressed as percentage of the maximum possible effect (MPE [%]): MPE=[(T1−T0)/(T2−T0)]*100 In this, T0 is the control latency time before and T1 the latency time after administration of the compound, T2 is the cutoff time and MPE is the maximum possible effect. […]

[2] = system: formalin-induced nociceptive behaviour, second (late) phase; test: Formalin test carried out on mice; format: in vivo
Procedure: Method III. Formalin Test Carried Out on Mice In the formalin test, the testing to determine the antinociceptive effect of the compounds according to the invention is carried out on male mice (NMRI, 20 to 30 g body weight, Iffa, Credo, Belgium). In the formalin test as described by D. Dubuisson et al., Pain 1977, 4, 161-174, a distinction is drawn between the first (early) phase (up to 10 minutes after the injection of formalin) and the second (late) phase (up to 60 minutes after the injection of formalin). The early phase, as an immediate reaction to the injection of formalin, is a model of acute pain, whereas the late phase is regarded as a model of persistent (chronic) pain (T. J. Coderre et al., Pain 1993, 52, 259-285). […] Subsequently, the nociceptive behaviour is continuously detected by observing the animals over a test period of three minutes in the second (late) phase of the formalin test (21 to 24 minutes after the injection of formalin). The pain behaviour is quantified by adding up the seconds over which the animals display licking and biting of the paw in question during the test period. […] Based on the quantification of the pain behaviour, the effect of the substance is determined in the formalin test as a percentage change relative to the corresponding control. […]

Row | Structure (SMILES) | EC50 (KCNQ2/3 channels) [nM] | Emax (KCNQ2/3 channels) [%] | Low intensity tail flick, rat, peroral, MPE (dose) [1] | Formalin test, mice, intravenous, MPE (dose) ([2]; dose 4.64 mg/kg) | Formalin test, mice, intravenous, MPE (dose) ([2]; dose 10.0 mg/kg)
1 | Cc1c(C(=O)NCc2cccc(F)c2)c(N2CCCC2)nc2cc(C(F)(F)F)ccc12 [Example 2, N-[(3-fluorophenyl)-methyl]-4-methyl-2-pyrrolidin-1-yl-7-(trifluoromethyl)-quinoline-3-carboxylic acid amide] | 801 | 186 | – | – | –
2 | Cc1c(C(=O)NCc2cccc(F)c2)c(N(C)C)nc2cc(C(F)(F)F)ccc12 [Example 4, 2-dimethylamino-N-[(3-fluorophenyl)-methyl]-4-methyl-7-(trifluoromethyl)-quinoline-3-carboxylic acid amide] | 510 | 140 | – | – | –
3 | CCN(CC)c1nc2cc(C(F)(F)F)ccc2c(C)c1C(=O)NCc1ccc(F)cc1 [Example 5, 2-diethylamino-N-[(4-fluorophenyl)-methyl]-4-methyl-7-(trifluoromethyl)-quinoline-3-carboxylic acid amide] | 721 | 205 | – | – | –
4 | Cc1c(C(=O)NCc2ccc(F)cc2)c(N2CCCC2)nc2cc(C(F)(F)F)ccc12 [Example 6, N-[(4-fluorophenyl)-methyl]-4-methyl-2-pyrrolidin-1-yl-7-(trifluoromethyl)-quinoline-3-carboxylic acid amide] | 593 | 204 | – | – | –
5 | CCN(CC)c1nc2cc(C(F)(F)F)ccc2c(C)c1C(=O)NCc1cccc(F)c1 [Example 7, 2-diethylamino-N-[(3-fluorophenyl)-methyl]-4-methyl-7-(trifluoromethyl)-quinoline-3-carboxylic acid amide] | 466 | 199 | – | – | 65% (10.0)
6 | Cc1c(C(=O)NCc2cccc(F)c2)c(N2CCOCC2)nc2cc(C(F)(F)F)ccc12 [Example 10, N-[(3-Fluorophenyl)-methyl]-4-methyl-2-morpholin-4-yl-7-(trifluoromethyl)-quinoline-3-carboxylic acid amide] | 1070 | 181 | – | – | –

These reach a lower EC50 (KCNQ2/3 channels). Values come first.

Row | EC50 (KCNQ2/3 channels) [nM] | Emax (KCNQ2/3 channels) [%] | Structure (SMILES) | Low intensity tail flick, rat, peroral, MPE (dose) [1] | Formalin test, mice, intravenous, MPE (dose) ([2]; dose 4.64 mg/kg) | Formalin test, mice, intravenous, MPE (dose) ([2]; dose 10.0 mg/kg)
7 | 403 | 111 | CNc1nc2cc(C(F)(F)F)ccc2c(C)c1C(=O)NCc1cccc(F)c1 [Example 9, N-[(3-fluorophenyl)-methyl]-4-methyl-2-methylamino-7-(trifluoromethyl)-quinoline-3-carboxylic acid amide] | – | – | –
8 | 350 | 105 | Cc1c(C(=O)NCc2ccc(F)cc2)c(N(C)C)nc2cc(C(F)(F)F)ccc12 [Example 3, 2-dimethylamino-N-[(4-fluorophenyl)-methyl]-4-methyl-7-(trifluoromethyl)-quinoline-3-carboxylic acid amide] | – | – | –
9 | 307 | 157 | CCNc1nc2cc(C(F)(F)F)ccc2c(C)c1C(=O)NCc1ccc(F)cc1 [Example 8, 2-ethylamino-N-[(4-fluorophenyl)-methyl]-4-methyl-7-(trifluoromethyl)-quinoline-3-carboxylic acid amide] | – | – | –
10 | 252 | 141 | CCNc1nc2cc(C(F)(F)F)ccc2c(C)c1C(=O)NCc1cccc(F)c1 [Example 1, 2-ethylamino-N-[(3-fluorophenyl)-methyl]-4-methyl-7-(trifluoromethyl)-quinoline-3-carboxylic acid amide] | 44% (21.5) | 71% (4.64) | –
